Measurements reported in patent US12714712B2, “Combination therapy with a mutant IDH inhibitor and a Bcl-2 inhibitor” (Eli Lilly and Company, priority 2020, dated 2026).
Several values for one entry are separate records, joined by “and”; a condition that tells them apart may be missing. Equal values may be shown once.

Key:
[1] = target: T1, mutant IDH1 (IDH1 R132H) in MOLM14 R132 cell line construct (Homo sapiens, UniProt O75874, R132H); assay: 2-HG Inhibition Assay (LC-MS of cell culture supernatant); assay type: cell-based; details: for 2-HG: 4 days, MOLM14 R132, doxycycline-induced, culture media
T1 construct: FLAG; host or cells: MOLM14 human leukemia cells (lentiviral, doxycycline-induced)
Text: MOLM14 wild-type human leukemia cells and a MOLM14 R132 construct cell line are generated by lentiviral transfection of MOLM14 cells using IDH1 WT (doxycycline inducible) pSLIK-IDH1-FLAG (Addgene Plasmid #66802) and IDH1 R132H (doxycycline inducible) pSLIK-IDH1-R132H-FLAG (Addgene Plasmid #66803), and is kindly provided by Dr. Jean-Emmanuel Sarry (Centre de Recherches en Cancérologie de Toulouse, UMR1037, Inserm, Université de Toulouse 3 Paul Sabatier, Toulouse, France; bioRxiv 749580; doi.org/10.1101/749580). MOLM14-WT and MOLM14-R132 mutant cells are seeded in 6 well plates (lx 10^6/well) in 5 ml of complete RPMI medium containing 10% FBS (Sigma) and 1× Pen/Strep (Sigma). After induction with 2 μg/ml doxycycline, the cells are incubated in 37 degree for 4 days.
Cells are seeded in 12 wells plates (100,000 cells/well) in 1 mL, in triplicate. Cells are treated with 2 μg/ml doxycycline to induce IDH1 expression, then treated with DMSO, 0.1 or 1 μM Compound A, and incubated at 37 degrees C. for 4 days.
65 μL of media are collected and centrifuged, and 60 μL of the supernatant media are collected and frozen at −80 degrees C.
LCMS 2-HG Metabolite Analysis.
The effects of IDH1 inhibition on the concentrations of total 2-HG and (α-KG) are determined by liquid chromatography-mass spectrometry (LC-MS) analysis of cell culture supernatant. Calibration curves are prepared by spiking 2-HG and α-KG into cell culture media. The method utilizes derivatization with O-benzylhydroxylamine prior to analysis by LC-MS. Ten microliters of each standard or sample is placed into a deep-well 96-well plate and combined with 100 μL of internal standard solution containing 10 μM d5-2-hydroxyglutarate and 10 μM d6-α-KG. 50 μL of 1 M O-benzylhydroxylamine in pyridine buffer (8.6% pyridine, pH 5) and 50 μL of 1 M N-(3-dimethylaminopropyl)-N-ethylcarbodiimide hydrochloride (EDC) in pyridine buffer is added to each sample. The derivatization reaction proceeds at room temperature for one hour. […] Analyte concentrations for the unknowns are back-calculated from the calibration curves.

[2] = tested on: MOLM14 wild-type and MOLM14 R132 cells; assay: Cell Viability Assay (Annexin V/DAPI flow cytometry: % viable cells and % apoptosis); assay type: cell-based, human
Method: MOLM14 wild-type and MOLM14 R132 cells are treated with 2 μg/ml doxycycline to induce expression of IDH1 WT and IDH1-R132H and then incubated at 37 degrees C. for 4 days. Cells are seeded in 4 (12 wells) plates at 10,000 cells/well in 1 mL growth media containing 2 ug/mL doxycycline.
Cells are treated with: DMSO (in triplicate), or with Compound A at 0, 125, 250, 500, 1000 nM (each in triplicate) as described in the following: After the initial induction described above, 0.5 mL media with 1× of doxycycline plus 1× Compound A or DMSO is added and incubated for 3 days. After the 3 days, another 0.5 mL aliquot of fresh media with 1×doxycyline plus 1×compound A or DMSO is added and incubated for 3 further days. Venetoclax (0, 25, 50, 100, 200 nM) is then added as a single agent or in combination with 1× Compound A. Two days later, cells are collected in flow cytometry filtered tubes, and processed for flow cytometry. Cells are washed with Annexin V Binding Buffer (ABB, 2 mL) [1 M Hepes buffer (10 mL), 5 M NaCl (28 mL), 1 M CaCl2 (5 mL), H2O (957 mL)], and then centrifuged at 1500 rpm for 5 min. Cells are stained with ABB (50 μL), with APC Annexin V Antibody (1 μL, Biolegend cat #640941), and kept in the dark for 20 minutes. Cells are washed with ABB (2 mL) and centrifuged at 1500 rpm for 5 min. DAPI (Invitrogen cat #D3571) and counting beads (Invitrogen cat #C36950) are added in Annexin V binding buffer [DAPI (5 μL, 2 μg/mL)+counting beads (5 μL (520,000 beads per 50 μL))+ABB (150 μL)] in a total volume 160 μL/tube, then analyzed with a Gallios flow cytometer (Beckman Coulter). Cells collection is stopped when counting beads reach 250 beads per sample. Kalusa software is used for analysis. The percentage of gated Annexin V-negative/DAPI-negative cells constitutes % viable cells, while the percentage of Annexin V-positive cells constitutes % apoptosis.

AML-PDX = AML-PDX Model; assay type: in vivo, NSG mice; details: peripheral blood, following 6 weeks of treatment, individual animals
Method: Male NSG mice (6-9 weeks of age, The Jackson Laboratory) are irradiated with 250 cGy and on the next day, injected intravenously with AML-PDX (1×10^6 cells/100 μL). Peripheral blood is collected via the retro-orbital route and processed to measure hCD45+ cells by flow cytometry to confirm the establishment of leukemia. When leukemia engraftment reaches more than 1%, mice are randomly grouped for treatment with vehicle, Compound A (10 mg/kg, daily oral gavage), venetoclax (50 mg/kg, oral gavage for 2 weeks on and 1 week off (2 cycles)) or the combination of venetoclax (50 mg/kg, oral gavage for 2 weeks on and 1 week off (2 cycles)) and Compound A (10 mg/kg, daily oral gavage). Additional dosing may be employed beyond the 2 cycles stated above based on the assessment of the level of residual disease remaining following 6 weeks of treatment. Peripheral blood is collected once every two weeks via the retro-orbital route and processed to measure leukemia burden (% hCD33+/hCD45+ cells) by flow cytometry, and to measure differentiation (% hCD14+ cells percentage out of total hCD45+ cells)). Sixty-five μL stain/wash buffer (5% heat inactivated (HI)-FBS in DPBS) is added per tube, mixed up and down 3 to 4 times by pipette, and 100 μL of the blood suspension is transferred to 5 mL polypropylene tubes. The stains are added according to the manufacturer's instructions (anti-human CD33-APC (BD Biosciences cat #551378), anti-human CD14-PE-Cy7 (BD Biosciences cat #557742), anti-human CD45-APC-Cy7 (BD Biosciences cat #557833). The samples are incubated for 30 minutes at room temperature, protected from light. After the incubation, 1.5 mL 1× BD Lyse/Fix buffer (37° C., (BD #558049)) is added to each sample and incubated for 12 minutes at room temperature. The tubes are then centrifuged at 1500 RPMI for 5 minutes. BD Lyse/Fix solution is aspirated and the cell pellet washed with stain/wash buffer 2 times. Fixed cells are then resuspended in 200 μL stain/wash buffer then transferred to filtered flow tubes. Samples are analyzed on a Gallios Flow cytometer (Beckman, Texas) using standard flow cytometry principles and technique. Population gating and data analysis of percent population are performed in the Flow Jo software.

mutant IDH1 = details: from WO 2018/111707 A1; cited from earlier work
[3] = Compound A 10 mg/kg daily oral gavage, 10 mg/kg
[4] = venetoclax 50 mg/kg oral gavage, 2 weeks on and 1 week off (2 cycles)

T1 sequence (O75874 whole entry R132H): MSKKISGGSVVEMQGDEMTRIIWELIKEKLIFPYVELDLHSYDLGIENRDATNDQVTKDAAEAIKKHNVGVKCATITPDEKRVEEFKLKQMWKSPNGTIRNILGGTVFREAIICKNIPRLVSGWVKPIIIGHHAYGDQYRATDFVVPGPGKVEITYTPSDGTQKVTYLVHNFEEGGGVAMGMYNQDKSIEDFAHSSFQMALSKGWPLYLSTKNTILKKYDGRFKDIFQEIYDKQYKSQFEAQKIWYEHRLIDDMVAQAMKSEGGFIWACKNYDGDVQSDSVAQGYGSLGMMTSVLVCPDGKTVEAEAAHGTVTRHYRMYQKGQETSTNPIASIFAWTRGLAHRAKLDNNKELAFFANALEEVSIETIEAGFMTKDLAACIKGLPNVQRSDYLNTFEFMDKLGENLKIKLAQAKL

C=CC(=O)N1CCN([C@@H](CC2CC2)c2ccc([C@H](C)Nc3ncc4c(n3)N(CC)C(=O)OC4)cc2)CC1 [Compound A, 7-[[(1S)-1-[4-[(1S)-2-cyclopropyl-1-(4-prop-2-enoylpiperazin-1-yl)ethyl]phenyl]ethyl]amino]-1-ethyl-4H-pyrimido[4,5-d][1,3]oxazin-2-one]
2-HG ([1]; 0.1 μM Compound A): 3.369 µM and 3.044 µM and 3.488 µM
2-HG ([1]; 1 μM Compound A): 3.578 µM and 3.199 µM and 3.378 µM
2-HG production by mutant IDH1 (in words) ([1]; MOLM14 R132 cell line construct): inhibits 2-HG production
% Annexin V + as a measure of apoptosis ([2]; Compound A 125 nM alone): 5.56% and 4.3% and 5.12%
% Cell Viability ([2]; Compound A 125 nM alone): 95.14% and 94.27%
% Annexin V + as a measure of apoptosis ([2]; Compound A 250 nM alone): 6.18% and 4.95% and 4.92%
% Cell Viability ([2]; Compound A 250 nM alone): 94.27% and 94.41%
% Annexin V + as a measure of apoptosis ([2]; Compound A 500 nM alone): 5.82% and 5.23% and 5.19%
% Cell Viability ([2]; Compound A 500 nM alone): 93.92% and 94.15%
% Annexin V + as a measure of apoptosis ([2]; Compound A 1000 nM alone): 7.2% and 5.51% and 7.52%
% Cell Viability ([2]; Compound A 1000 nM alone): 93.98% and 91.68%
viability at 0.125 µM ([2]; Homo sapiens, MOLM-14, Compound A 125 nM alone): 93.7%
viability at 0.25 µM ([2]; Homo sapiens, MOLM-14, Compound A 250 nM alone): 93.3%
viability at 0.5 µM ([2]; Homo sapiens, MOLM-14, Compound A 500 nM alone): 93.7%
viability at 1 µM ([2]; Homo sapiens, MOLM-14, Compound A 1000 nM alone): 92%
AML cell differentiation (% hCD14+ of hCD45+) (AML-PDX; [3]): 44.1% and 58.3% and 63.6% and 64.1% and 51.7% and 58.9%
Leukemic burden (% hCD33+hCD45+ of total white cells) (AML-PDX; [3]): 87.8% and 88.5% and 51.5% and 65.6% and 85.1% and 81.9%
2-HG production (in words) (mutant IDH1): selectively inhibits 2-HG production
α-KG levels (in words) (mutant IDH1): without affecting α—KG levels

CC1(C)CCC(CN2CCN(c3ccc(C(=O)NS(=O)(=O)c4ccc(NCC5CCOCC5)c([N+](=O)[O-])c4)c(Oc4cnc5[nH]ccc5c4)c3)CC2)=C(c2ccc(Cl)cc2)C1 [Venetoclax, venetoclax, reference compound]
viability at 0.025 µM ([2]; Homo sapiens, MOLM-14, 48 h, venetoclax 25 nM alone, 2 days): 76.1%
viability at 0.05 µM ([2]; Homo sapiens, MOLM-14, 48 h, venetoclax 50 nM alone, 2 days): 76.9%
viability at 0.1 µM ([2]; Homo sapiens, MOLM-14, 48 h, venetoclax 100 nM alone, 2 days): 70.4%
viability at 0.2 µM ([2]; Homo sapiens, MOLM-14, 48 h, venetoclax 200 nM alone, 2 days): 55.2%
% Annexin V + as a measure of apoptosis ([2]; venetoclax 25 nM alone): 19.1% and 15.93% and 19.16%
% Cell Viability ([2]; venetoclax 25 nM alone, 2 days): 81.78% and 77.84%
% Annexin V + as a measure of apoptosis ([2]; venetoclax 50 nM alone): 18.22% and 16.34% and 17.15%
% Cell Viability ([2]; venetoclax 50 nM alone, 2 days): 80.63% and 78.78%
% Annexin V + as a measure of apoptosis ([2]; venetoclax 100 nM alone): 24.62% and 18.98% and 22.98%
% Cell Viability ([2]; venetoclax 100 nM alone, 2 days): 73.78%
% Annexin V + as a measure of apoptosis ([2]; venetoclax 200 nM alone): 41.67% and 35.73% and 41.22%
% Cell Viability ([2]; venetoclax 200 nM alone, 2 days): 59.27% and 56.31%
AML cell differentiation (% hCD14+ of hCD45+) (AML-PDX; [4]): 37.7% and 26% and 40.7% and 32.6%
Leukemic burden (% hCD33+hCD45+ of total white cells) (AML-PDX; [4]): 10.1% and 63% and 14.1% and 54.9%
